Laboratory results reported in patent US9248133B2, “Salts of lorcaserin with optically active acids” (Arena Pharmaceuticals, Inc., priority 2010, dated 2016).

Assays:
[1] = Aqueous solubility by UPLC; assay type: physicochemical; details: for Solubility in water: UPLC
Procedure: Acquity ultra performance liquid chromatography (UPLC) from Waters was used for solubility and stoichiometry determination. […] UPLC was equipped with Acquity PDA detector. UPLC mobile phase solvent A was 0.1% TFA in DI-water, solvent B was 0.1% TFA in acetonitrile.
Column temperature was 40±5° C. Acquity UPLC® HSS T3 1.8 μm, 2.1×50 mm column was used.
A known amount of sample was dissolved in water and analyzed by UPLC.

[2] = Dynamic moisture-sorption (DMS) analysis; details: for State of the sample after DMS analysis: after removal from the analyzer, PXRD where done; for DMS weight increase at 70% RH: adsorption cycle, 25° C., Form I
Procedure: Samples were prepared for DMS analysis by placing 5 mg to 20 mg of a sample in a tared sample holder. The sample was placed on the hang-down wire of the VTI balance. A drying step was run, typically at 40° C. and 0.5-1% RH for 1-2 h. The isotherm temperature is 25° C. […] A % weight change smaller than 0.010% over a specified number of minutes (typically 10-20), or up to 2 h, whichever occurs first, is required before continuing to the next % RH hold. The water content of the sample equilibrated as described above was determined at each % RH hold.

[3] = Deliquescence relative humidity (DRH) by water activity meter; assay type: physicochemical; details: for DRH (deliquescence relative humidity): saturated aqueous solution with excess solid at 25° C.
Excerpt: If saturated in water with excess solid, a deliquescing compound or salt thereof equilibrated in a closed system at a given temperature produces a % RH in that closed system that is equal to its deliquescing % RH (DRH) at that temperature. Fractional relative humidity is equal to water activity (aw) in the vapor phase and at equilibrium in a closed system, the aw in an aqueous solution is equal to the aw in the vapor phase above the solution (see Equation 1).
A water activity meter was used to measure DRH for selected salts described herein. […] This instrument is designed with temperature control and a small headspace above the enclosed sample to establish equilibrium between solution and vapor phases quickly.

[4] = cited from earlier work
[5] = cited from earlier work; remark: listed apart in the source
[6] = pivotal phase 3 program, up to two years
[7] = second phase 3 trial, top quartile of patients
[8] = patients who completed 52 weeks of treatment according to the protocol

Question: With `C[C@H]1CNCCc2ccc(Cl)cc21.C[C@H]1CNCCc2ccc(Cl)cc21.O=C(O)[C@@H](O)[C@H](O)[C@H](O)[C@@H](O)C(=O)O` [Compound 1 Hemimucate Salt, Form I, (R)-8-Chloro-1-methyl-2,3,4,5-tetrahydro-1H-3-benzazepine Hemimucate] as the molecule, how does the Solubility in water [1] read?
Answer: 0.85 mg/mL

Question: What does the source list for “(R)-8-Chloro-1-methyl-2,3,4,5-tetrahydro-1H-3-benzazepine Di-camphorate Salt Solvate”?
Answer: DMS weight lost on the desorption phase ([2]; 25° C. and 10% RH): over 1.2%; State of the sample after DMS analysis [2]: crystalline phase did not change; Solubility in water [1]: 38.6 mg/mL; Aqueous solubility expressed as the free base ([1]; water, pH 5.2): 12.3 mg/mL

Question: For `CC1(C)C2CC[C@@]1(CS(=O)(=O)O)C(=O)C2.C[C@H]1CNCCc2ccc(Cl)cc21` [(R)-8-Chloro-1-methyl-2,3,4,5-tetrahydro-1H-3-benzazepine (1S)-(+)-10-Camsylate Salt], which “Deliquescence conclusion from DRH” value ([3]; 25° C.) is on record?
Answer: not deliquescent

Question: And the “DRH (deliquescence relative humidity)” value [3]?
Answer: 99.8 % RH

Question: What about the Solubility in water [1] of the same molecule?
Answer: 20 mg/mL

Question: Which results are given for “(R)-8-Chloro-1-methyl-2,3,4,5-tetrahydro-1H-3-benzazepine Hemi-L-malate Salt [Compound 1 Hemi-L-Malate Salt, Form I]”?
Answer: DRH (deliquescence relative humidity) [3]: 89.9 % RH; Solubility in water [1]: 486.3 mg/mL

Question: Which “Excess body weight lost” value ([4]; first phase 3 trial, based on a normal BMI of 25) does the source give for `C[C@H]1CNCCc2ccc(Cl)cc21.Cl` [lorcaserin, (R)-8-Chloro-1-methyl-2,3,4,5-tetrahydro-1H-3-benzazepine hydrochloride] here?
Answer: about one-third

Question: What about the “Patients who achieved at least 5% weight loss” value [4, 6] of the same molecule?
Answer: About two-thirds

Question: And the “Patients who achieved at least 10% weight loss” value [4, 6]?
Answer: over one-third

Question: And the “Average weight lost, % of weight” value ([4]; pivotal phase 3 program)?
Answer: about 8%

Question: And the “Depression or suicidal ideation” value ([4]; pivotal phase 3 program)?
Answer: no signal

Question: What about the “Heart rate and blood pressure” value ([4]; pivotal phase 3 program) of the same molecule?
Answer: went down

Question: What about the “Risk of cardiac valvulopathy” value ([4]; pivotal phase 3 program) of the same molecule?
Answer: did not increase the risk of cardiac valvulopathy

Question: What about the “Average weight loss of the top quartile, % of body weight” value [4, 7] of the same molecule?
Answer: 16%

Question: And the “Average weight loss of the top quartile, pounds” value [4, 7]?
Answer: 35 pounds

Question: What about the “Average weight loss, % of body weight” value ([5]; 12 months, ITT-LOCF analysis) of the same molecule?
Answer: 5.8%

Question: What about the “Average weight loss, pounds” value ([5]; 12 months, ITT-LOCF analysis) of the same molecule?
Answer: 12.7 pounds

Question: And the “Patients who lost greater than or equal to 5% of their body weight from baseline” value ([5]; 12 months, ITT-LOCF analysis)?
Answer: 47.5%

Question: And the “Patients who lost greater than or equal to 10% of their body weight from baseline” value ([5]; 12 months, ITT-LOCF analysis)?
Answer: 22.6%

Question: What about the “Average weight loss of completers, % of body weight” value [5, 8] of the same molecule?
Answer: 8.2%

Question: And the “Average weight loss of completers, pounds” value [5, 8]?
Answer: 17.9 pounds

Question: And the Tolerability ([5]; phase 3 trial)?
Answer: generally very well tolerated

Question: What about the “FDA-defined valvulopathy (echocardiograms)” value ([5]; two-year treatment period) of the same molecule?
Answer: no apparent drug-related effect

Question: What does the source list for “(R)-8-Chloro-1-methyl-2,3,4,5-tetrahydro-1H-3-benzazepine Pyroglutamate Salt [Compound 1 Pyroglutamate Salt, Form I]”?
Answer: DMS weight increase at 70% RH [2]: ~17%; DMS weight increase at 70% RH ([2]; listed as Compound 1 Pyrogluconate Salt): FIG. 21: 17-24% weight increase at 70% RH, about; State of the sample after DMS analysis [2]: sticky oil

Question: For “(R)-8-Chloro-1-methyl-2,3,4,5-tetrahydro-1H-3-benzazepine Glucuronate Salt [Compound 1 Glucuronate Salt, Form I]”, which Solubility in water [1] is on record?
Answer: 2.5 mg/mL
